Data published in publication PMC10762035, “Molecular basis of human trace amine-associated receptor 1 activation” (Nature Communications, 2024).
Numbering of substitutions follows the chain as printed. “And” between values parts separate entries of the source, which are not always exact repeats. Equal values may be shown once. Read-outs that look alike come from different tables or passages of the source. Values belong to the compound of their own block, whether it stands above or below them.

How the values were obtained:
Format in all cases: cell-based
[1] = biological target: T1, β2AR-Nterm-hTA1-F112^3.41W (CryoEM Construct) (Homo sapiens, UniProt Q96RJ0, F112W); experiment: GloSensor cAMP accumulation assay, cryoEM construct; settings: for Emax: read-out: Span ± SEM (Emax normalized to β-PEA);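 for Normalized Luminescence Counts (N=2): normalized to the maximum response of β-PEA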;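 for all read-outs here: cells transiently co-transfected with the receptor construct and GloSensor cAMP biosensor, luminescence read after 30 min compound exposure at room temperature in the dark as cAMP accumulation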
T1 construct: FLAG (N); 10xHis (N); TEV protease site (N); expressed in transfected cells; host or cells: HEK293T
T1 sequence (Q96RJ0 with tags, fused parts or gaps F112W): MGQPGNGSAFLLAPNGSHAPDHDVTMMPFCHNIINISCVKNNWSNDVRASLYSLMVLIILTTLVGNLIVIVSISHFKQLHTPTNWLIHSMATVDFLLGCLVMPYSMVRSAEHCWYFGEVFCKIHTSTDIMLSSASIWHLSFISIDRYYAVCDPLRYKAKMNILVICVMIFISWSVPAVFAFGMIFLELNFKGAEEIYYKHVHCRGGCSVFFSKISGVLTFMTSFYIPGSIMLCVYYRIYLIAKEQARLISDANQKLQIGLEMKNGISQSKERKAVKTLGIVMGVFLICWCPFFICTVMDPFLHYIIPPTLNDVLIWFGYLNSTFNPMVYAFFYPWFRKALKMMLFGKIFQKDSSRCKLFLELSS

hTA1 T271N = biological target: T2, hTA1 T271N (Homo sapiens, UniProt Q96RJ0, T271N); experiment: GloSensor cAMP accumulation assay, T271N mutant
T2 construct: expressed in transfected cells; host or cells: HEK293T
T2 sequence (Q96RJ0 1-339 T271N): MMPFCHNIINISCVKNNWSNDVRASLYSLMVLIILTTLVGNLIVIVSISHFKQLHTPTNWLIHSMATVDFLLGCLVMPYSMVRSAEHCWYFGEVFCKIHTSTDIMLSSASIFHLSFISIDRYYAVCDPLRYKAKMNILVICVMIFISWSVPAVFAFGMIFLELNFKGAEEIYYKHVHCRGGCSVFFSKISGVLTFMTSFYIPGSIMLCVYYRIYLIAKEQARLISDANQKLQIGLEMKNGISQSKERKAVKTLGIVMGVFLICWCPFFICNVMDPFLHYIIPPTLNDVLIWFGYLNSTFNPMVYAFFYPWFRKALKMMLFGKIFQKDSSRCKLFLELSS

hTA1 C13S = biological target: T3, hTA1 C13S (Homo sapiens, UniProt Q96RJ0, C13S); experiment: GloSensor cAMP accumulation assay, C13S mutant; settings: for C13S - Normalized Luminescence Counts (N=2): log[Compound], single wells
T3 construct: expressed in transfected cells; host or cells: HEK293T
T3 sequence (Q96RJ0 1-339 C13S): T2 sequence (Q96RJ0 1-339 T271N) with C13S, N271T

hTA1 R83H = biological target: T4, hTA1 R83H (Homo sapiens, UniProt Q96RJ0, R83H); experiment: GloSensor cAMP accumulation assay, R83H mutant;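 note: cells transiently co-expressing hTA1 and a cAMP GloSensor, luminescence read 30 min after agonist addition at room temperature, concentration–response fitted by non-linear regression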
T4 construct: expressed in transfected cells; host or cells: HEK293T
T4 sequence (Q96RJ0 1-339 R83H): T2 sequence (Q96RJ0 1-339 T271N) with R83H, N271T

hTA1 C5S = biological target: T5, hTA1 C5S (Homo sapiens, UniProt Q96RJ0, C5S); experiment: GloSensor cAMP accumulation assay, C5S mutant; settings: for C5S - Normalized Luminescence Counts (N=2): log[Compound], single wells
T5 construct: expressed in transfected cells; host or cells: HEK293T
T5 sequence (Q96RJ0 1-339 C5S): T2 sequence (Q96RJ0 1-339 T271N) with C5S, N271T

hTA1 W264F = biological target: T6, hTA1 W264F (Homo sapiens, UniProt Q96RJ0, W264F); experiment: GloSensor cAMP accumulation assay, W264F mutant;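 note: cells transiently transfected with receptor plus GloSensor, luminescence read 30 min after agonist addition at room temperature, concentration-response curves fitted by log(agonist) vs response regression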
T6 construct: expressed in transfected cells; host or cells: HEK293T
T6 sequence (Q96RJ0 1-339 W264F): T2 sequence (Q96RJ0 1-339 T271N) with W264F, N271T

[2] = Cryo EM Construct minus WT average
[3] = CryoEM Construct, n=2, read-out: EC50
[4] = CryoEM Construct, n=2, read-out: pEC50 ± SEM (converted)
[5] = T271N, n=2, read-out: Span ± SEM (Emax normalized to β-PEA)
[6] = C13S, n=2, read-out: Span ± SEM (Emax normalized to β-PEA)
[7] = C5S, n=2, read-out: Span ± SEM (Emax normalized to β-PEA)
[8] = W246F mutant (so in the source) minus WT average
[9] = W264F, n=2, read-out: Span ± SEM (Emax normalized to β-PEA)

SMILES: NCCc1ccc(O)cc1 [TYR, tyramine]
ΔEmax values (each mutant value - WT average), Mean [1, 2]: 14.87 and 14.1384 | ΔpEC50 values (each mutant value - WT average), Mean [1, 2]: 0.1106 and 0.3686 | Emax values, Mean ([1]; Cryo EM Construct, mean of each independent experiment (3 replicates)): 0.3686 | EC50 ([1]; Cryo EM Construct, mean of each independent experiment (3 replicates), read-out: pEC50 values, Mean (converted)): 322 nM and 178 nM | Normalized Luminescence Counts (N=2) ([1]; CryoEM Construct, log[Compound], M = -5, single replicates): 108.729 and 109.99 and 112.27 and 114.944 | EC50 [1, 3]: 235 nM | Emax ([1]; CryoEM Construct, n=2): 113 ± 2.5% | EC50 [1, 4]: 240 nM | EC50 (hTA1 T271N; T271N mutant, Figure 5B, each row one independent experiment (3 replicates), read-out: pEC50 values, Mean (converted)): 553 nM and 1350 nM | Emax values, Mean (hTA1 T271N; T271N mutant, Figure 5B, β-PEA = 100, each row one independent experiment (3 replicates)): 98.6225 | Emax (hTA1 T271N; T271N mutant, Figure 5B, β-PEA = 100, each row one independent experiment (3 replicates), read-out: Emax values, Mean): 106% | EC50 (hTA1 T271N; T271N, n=2, read-out: EC50): 863 nM | Emax (hTA1 T271N; [5]): 103 ± 3.93% | ΔpEC50 values (each mutant value - WT average) (hTA1 C13S; C13S): -0.3688 and -0.3329 | Emax values (hTA1 C13S; C13S, Mean of fit per experiment): 110.911 | Emax (hTA1 C13S; C13S, Mean of fit per experiment, read-out: Emax values): 93.7% | EC50 (hTA1 C13S; C13S, n=2, read-out: EC50): 931 nM | Emax (hTA1 C13S; [6]): 102 ± 8.61% | EC50 (hTA1 C13S; hTA1 C13S, mean of 3 replicates, one line per independent experiment, read-out: pEC50 values, Mean (converted)): 970 nM and 893 nM | C13S - Normalized Luminescence Counts (N=2) (hTA1 C13S; M = -5): 78.8304 and 97.2912 and 83.436 and 97.1609 and 112.12 and 105.729 | C13S - Normalized Luminescence Counts (N=2) (hTA1 C13S; M = -5.522): 59.6843 and 75.6711 and 68.2867 and 72.4375 and 86.5575 and 83.5764 | C13S - Normalized Luminescence Counts (N=2) (hTA1 C13S; M = -6): 42.8222 and 56.3728 and 40.1958 and 58.5139 and 61.7985 and 54.8367 | C13S - Normalized Luminescence Counts (N=2) (hTA1 C13S; M = -6.522): 23.1813 and 24.6658 and 21.4304 and 27.8641 and 32.7195 and 30.988 | ΔEmax values (each mutant value - WT average) (hTA1 R83H; R83H mutant minus WT average): -13.6885 | EC50 (hTA1 R83H; R83H mutant, each line an independent experiment, 3 replicates, read-out: pEC50 values (Mean) (converted)): 5330 nM | Emax (hTA1 R83H; R83H mutant, β-PEA = 100, each line an independent experiment, 3 replicates, read-out: Emax values (Mean)): 85.3% | EC50 (hTA1 R83H; R83H, n=2, read-out: EC50): 31400 nM | EC50 (hTA1 C5S; C5S, n=2, read-out: EC50): 418 nM | Emax (hTA1 C5S; [7]): 97.4 ± 4.98% | ΔpEC50 values (each mutant value - WT average), Mean (hTA1 C5S; hTA1 C5S minus WT average): 0.08447 and -0.09146 | EC50 (hTA1 C5S; hTA1 C5S, mean of 3 replicates, one line per independent experiment, read-out: pEC50 values, Mean (converted)): 342 nM and 512 nM | Emax values, Mean (hTA1 C5S; hTA1 C5S, β-PEA = 100, mean of 3 replicates, one line per independent experiment): 92.4348 | Emax (hTA1 C5S; hTA1 C5S, β-PEA = 100, mean of 3 replicates, one line per independent experiment, read-out: Emax values, Mean): 102% | C5S - Normalized Luminescence Counts (N=2) (hTA1 C5S; M = -5): 102.862 and 111.578 and 98.7984 and 85.7838 and 116.923 and 74.2532 | C5S - Normalized Luminescence Counts (N=2) (hTA1 C5S; M = -5.522): 86.6512 and 89.3832 and 85.861 and 68.3844 and 81.1578 and 69.9034 | C5S - Normalized Luminescence Counts (N=2) (hTA1 C5S; M = -6): 78.4779 and 69.4918 and 73.443 and 62.6536 and 54.2301 and 61.4799 | C5S - Normalized Luminescence Counts (N=2) (hTA1 C5S; M = -6.522): 44.8815 and 51.1131 and 50.1196 and 36.2784 and 34.207 and 33.0332 | C5S - Normalized Luminescence Counts (N=2) (hTA1 C5S; M = -7): 29.0315 and 24.8319 and 26.4576 and 17.7742 and 18.5337 and 19.2242 | C5S - Normalized Luminescence Counts (N=2) (hTA1 C5S; M = -7.522): 7.6273 and 8.959 and 8.553 and 6.382 and 5.3461 and 5.829 | ΔEmax values (each mutant value - WT average) (hTA1 W264F; [8]): 2.816 | ΔpEC50 values (each mutant value - WT average) (hTA1 W264F; [8]): -1.54 and -1.2519 | EC50 (hTA1 W264F; W246F mutant (so in the source), each line an independent experiment, 3 replicates, read-out: pEC50 values (Mean) (converted)): 14400 nM and 7410 nM | Emax values, Mean (hTA1 W264F; W246F mutant (so in the source), β-PEA = 100, each line an independent experiment, 3 replicates): 99.2183 | Emax (hTA1 W264F; W246F mutant (so in the source), β-PEA = 100, each line an independent experiment, 3 replicates, read-out: Emax values (Mean)): 102% | EC50 (hTA1 W264F; W264F, n=2, read-out: EC50): 10300 nM | Emax (hTA1 W264F; [9]): 101 ± 1.29%

EC50 [1, 3]: 51.8 nM | Emax ([1]; CryoEM Construct, n=2): 95.2 ± 1.98% | EC50 [1, 4]: 52.5 nM | Emax values of Asenapine (hTA1 T271N; T271N, Mean of one experiment): 142.994 and 100.859 | EC50 (hTA1 T271N; T271N, Mean of one experiment, read-out: pEC50 values of Asenapine (converted)): 496 nM and 463 nM | EC50 (hTA1 T271N; T271N, n=2, read-out: EC50): 479 nM | Emax (hTA1 T271N; [5]): 122% | Emax (hTA1 T271N; T271N, relative to β-PEA, read-out: Emax): 122% | ΔEmax values (each mutant value - WT average), T271N, Mean (hTA1 T271N; hTA1 T271N mutant vs WT average, Figure 6B, each line is one experiment (3 replicates)): 54.2867 and 12.1519 | EC50 (hTA1 C13S; C13S, n=2, read-out: EC50): 321 nM | Emax (hTA1 C13S; [6]): 77.1 ± 4.84% | ΔpEC50 values (each mutant value - WT average), Mean (hTA1 R83H; R83H, Asenapine): -1.278 and -1.426 | Emax values, Mean (hTA1 R83H; R83H, Asenapine, per experiment, 3 replicates): 22.9611 and 11.3307 | EC50 (hTA1 R83H; R83H, Asenapine, per experiment, 3 replicates, read-out: pEC50 values Mean (converted)): 1640 nM and 2310 nM | EC50 (hTA1 R83H; R83H, n=2, read-out: EC50): 1950 nM | Emax (hTA1 R83H; R83H, n=2, read-out: Span ± SEM (Emax normalized to β-PEA)): 17.1 ± 5.82% | EC50 (hTA1 C5S; C5S, n=2, read-out: EC50): 261 nM | Emax (hTA1 C5S; [7]): 83.2 ± 1.59% | ΔpEC50 values (each mutant value - WT average), Mean (hTA1 W264F; W264F, Asenapine): -2.045 and -2.029 | Emax values, Mean (hTA1 W264F; W264F, Asenapine, per experiment, 3 replicates): 34.2126 and 58.204 | EC50 (hTA1 W264F; W264F, Asenapine, per experiment, 3 replicates, read-out: pEC50 values Mean (converted)): 9610 nM and 9250 nM | EC50 (hTA1 W264F; W264F, n=2, read-out: EC50): 9430 nM | Emax (hTA1 W264F; [9]): 46.2 ± 12%
SMILES: CN1CC2c3ccccc3Oc3ccc(Cl)cc3C2C1 (stereo not drawn) [asenapine]
